Results: EP0006987A1, “2,4-Diamino-5-benzylpyrimidines, especially for the treatment of microbial infections, pharmaceutical compositions containing these compounds and processes for preparing these compounds” (THE WELLCOME FOUNDATION LIMITED, priority 1978, dated 1980)
Where a name gives a salt, the structure may show the parent alone. Read-outs that look alike come from different tables or passages of the source. Marks after values point to notes of the source that are not given here.

What was measured:
[1] = Acute oral toxicity in rats; conditions: rat, in vivo
[2] = Acute oral toxicity in mice; conditions: mouse, in vivo
Neisseria gonorrhoeae = assay: Antigonococcal activity, MIC by agar dilution, relative to trimethoprim; type: cell-based; conditions: expressed as activity versus TMP activity, 17 strains; for Antigonococcal Activity v.N.gonorrhaeae W.S.T.A. / Antigonococcal Activity v.N.gonorrhaeae W.S.T.A. (Repeat Examination): Wellcotest Sensitivity Test Agar; for Antigonococcal Activity v.N.gonorrhaeae W.S.T.A.: Screening Examination, 24 hours incubation; for Antigonococcal Activity v.N.gonorrhaeae W.S.T.A. (Repeat Examination): standardised inocula, 48 hours incubation; for Antigonococcal Activity v.N.gonorrhaeae G.C.A.: Difco G.C. Agar
Description: (§1) The antigonococcal activity of 2,4-diamino-(3,5-diethyl-4-hydroxybenzyl)pyrimidine (compound 1), 2,4-diamino-(4-hydroxy-3,5-di-n-propylbenzyl)pyrimidine (compound 2), 2,4-diamino-(3-ethyl-4-hydroxy-5-n-propylbenzyl)pyrimidine (compound 3),24-diamino-(4-hydroxy-3,5-di-i-propylbenzyl)pyrimidine (compound 4) and 2,4-·diamino-·(3,5-di--t-butyl-4-hydroxybenzyl) pyrimidine (compound 5) and the antimeningococcal activity of compounds 2,3 and 4 were determined […] by the following methods. The activities were measured against 17 strains of Neisseria gonorrhoeae and 5 strains of Neisseria meningitidis in Wellcotest Sensitivity Test Agar supplemented with 5$ heated horse blood and 5% unheated lysed horse blood, In practice, 5% blood was added to 500ml quantities of the medium at 56°C and, after being placed in a 80°C water bath for 15 minutes and then cooled to 56°C, the lysed blood and the test compounds were added. The medium was then immediately poured into plates. The test compounds were dissolved as the isothionates.
(§2) In the Screening Examination, which consisted of 6 separate tests, the minimum inhibitory concentrations (MIC's) were determined in one-third interval dilutions and then reexamined in one-half interval dilution.
(§3) The inoculum in the Screening Examination was from an 18-hour Mueller-Hinton heated-blood broth culture, and applied with a lmm loop which was streaked along lcm.. Because the amount of growth produced by the strains varied, the inocula was not constant in these tests, in the Repeat Examination, the inocula were standardised to give "just confluent'' growth. The MIC's were read as that concentration which produced 90% or more inhibition of growth as compared macroscopically with that of the control growth. The incubation period for the Screening Examination was 24 hours and for the Repeat Examination 48 hours.
(§4) As standards, Escherichia coli (CN 314 ) and trimethoprim (TMP) were included in each test.
(§5) Using the above method the activities of compound 5 was measured against the same 17 strains of Neisseria gonorrhoeae and 5 strains of Neisseria meningitidis in Difco G.C. Agar.

[3] = Blood, urine and tissue concentrations in mice after oral administration (microbiological assay with Bacillus pumilus); type: in vivo; conditions: 2mg/mouse P.O.; for Urine Direct (percentage in brackets): appears to be direct urine concentration as percent of that after Glusalase; for concentration at 1 h / concentration at 2 h / concentration at 4 h: po; for concentration at 1 h: 1 hour after dosing, read-out: Conc. in blood at 1HR; for concentration at 2 h: 2 hours after dosing, read-out: Conc. in blood at 2HR
Description: Also shown in Table 1 is the concentration of each of the compounds in the blood urine and tissues of mice after oral administration. These concent rations were determined as described hereafter. The compounds, suspended in 0.1% methylcellulose, were administered by stomach tube to groups of 3 mice, the dose was 2.0mg per 20g mouse and blood was collected from the orbital sinus at 1, 2 and 4 hours after the dosing. Urine was collected directly from each animal at the 4th hour, after which the animals were killed. Liver, lung, brain and muscle was taken from each animal and homogenised in an equal volume (w/v) of water in a Polytron Homogenizer. The suspensions were taken to be 1:2 extracts of the tissues.
The concentrations of the drugs were determined microbiologically, using Bacillus pumilus, those in the urine determined both before and after 18 hours incubation with Glusalase (gluecuronidase and sulfatase).

Neisseria meningitidis = assay: Antimeningococcal activity, MIC by agar dilution, relative to trimethoprim; type: cell-based; conditions: expressed as activity versus TMP activity; 5 strains
Description: as §1, §2, §3, §4, §5

[4] = system: Escherichia coli (CN 314 ); assay: Activity against standard organism E. coli, MIC by agar dilution, relative to trimethoprim; type: cell-based; conditions: expressed as activity versus TMP activity
Description: The medium was then immediately poured into plates. The test compounds were dissolved as the isothionates. […] Because the amount of growth produced by the strains varied, the inocula was not constant in these tests, in the Repeat Examination, the inocula were standardised to give "just confluent'' growth. The MIC's were read as that concentration which produced 90% or more inhibition of growth as compared macroscopically with that of the control growth. The incubation period for the Screening Examination was 24 hours and for the Repeat Examination 48 hours. As standards, Escherichia coli (CN 314 ) and trimethoprim (TMP) were included in each test.

[5] = blood, 4 hours after dosing, read-out: Conc. in blood at 4HR
[6] = brain, 4 hours, tissue homogenate, read-out: Concentration at 4HRS in: Brain
[7] = liver, 4 hours, tissue homogenate, read-out: Concentration at 4HRS in: Liver
[8] = lung, 4 hours, tissue homogenate, read-out: Concentration at 4HRS in: Lung
[9] = muscle, 4 hours, tissue homogenate, read-out: Concentration at 4HRS in: Muscle
[10] = 4 hours, urine after 18 hours incubation with Glusalase (glucuronidase and sulfatase), read-out: Concentration at 4HRS in: Urine After glacolase
[11] = 4 hours, urine before incubation with Glusalase, read-out: Concentration at 4HRS in: Urine Direct

| Compound | LD50 [1] | LD50 ([2]; female mice, read-out: LD50 (mice) female) | LD50 ([2]; male mice, read-out: LD50 (mice) male) | Antigonococcal Activity v.N.gonorrhaeae W.S.T.A. (Neisseria gonorrhoeae) | Urine Direct (percentage in brackets) ([3]; 4 hours) | concentration at 1 h ([3]; blood) | concentration at 2 h ([3]; blood) | concentration at 4 h [3, 5] | concentration at 4 h [3, 6] | concentration at 4 h [3, 7] | concentration at 4 h [3, 8] | concentration at 4 h [3, 9] | concentration at 4 h [3, 10] | concentration at 4 h [3, 11] | Antigonococcal Activity v.N.gonorrhaeae W.S.T.A. (Repeat Examination) (Neisseria gonorrhoeae) | Antigonococcal Activity v.N.meningitidis (Neisseria meningitidis) | Antigonococcal Activity v.E.coli (CN314) [4] | Antigonococcal Activity v.N.gonorrhaeae G.C.A. (Neisseria gonorrhoeae) |
| --- | --- | --- | --- | --- | --- | --- | --- | --- | --- | --- | --- | --- | --- | --- | --- | --- | --- | --- |
| CC(C)c1cc(Cc2cnc(N)nc2N)cc(C(C)C)c1O [2,4-diamino-5-(3,5-diisopropyl-4-hvdroxyberzyl) pyrimidine lactate salt] | > 100 mg/kg | 2890 mg/kg | 2830 mg/kg |  |  |  |  |  |  |  |  |  |  |  |  |  |  |  |
| CCc1cc(Cc2cnc(N)nc2N)cc(CC)c1O [COMPOUND 1, 2,4-diamino-(3,5-diethyl-4-hydroxybenzyl)pyrimidine] |  |  |  | 7 | 7% | 1.11 µg/mL | 0.41 µg/mL | 0.4 µg/mL | 0.34 µg/mL | 1.94 µg/mL | 1.75 µg/mL | < 0.03 µg/mL | 790 µg/mL | 56 µg/mL |  |  |  |  |
| CCCc1cc(Cc2cnc(N)nc2N)cc(CCC)c1O [COMPOUND 2, 2,4-diamino-(4-hydroxy-3,5-di-n-propylbenzyl)pyrimidine] |  |  |  | 21 | 2.5% | 1.36 µg/mL | 0.5 µg/mL | 0.44 µg/mL | 0.5 µg/mL | 3.75 µg/mL | 1.8 µg/mL | < 0.03 µg/mL | 650 µg/mL | 16 µg/mL | 17^** | 11 | 0.03 |  |
| CCCc1cc(Cc2cnc(N)nc2N)cc(CC)c1O [COMPOUND 3, 2,4-diamino-(3-ethyl-4-hydroxy-5-n-propylbenzyl)pyrimidine] |  |  |  | 21 | 2.2% | 0.88 µg/mL | 0.9 µg/mL | 0.8 µg/mL | 0.44 µg/mL | 5 µg/mL | 3.6 µg/mL | 0.21 µg/mL | 1800 µg/mL | 39 µg/mL | 18^** | 7 | >0.1 |  |
| CC(C)c1cc(Cc2cnc(N)nc2N)cc(C(C)C)c1O [COMPOUND 4, 24-diamino-(4-hydroxy-3,5-di-i-propylbenzyl)pyrimidine] |  |  |  | 18 | 50% | 1.38 µg/mL | 1.08 µg/mL | 0.65 µg/mL | 0.46 µg/mL | 8.3 µg/mL | 2.6 µg/mL | < 0.03 µg/mL | 190 µg/mL | 95 µg/mL | 17^** | 7 | 0.03 | 13 |
| CC(C)(C)c1cc(Cc2cnc(N)nc2N)cc(C(C)(C)C)c1O [COMPOUND 5, 2,4-·diamino-·(3,5-di--t-butyl-4-hydroxybenzyl) pyrimidine] |  |  |  |  | 42% | 4.25 µg/mL | 4 µg/mL | 3 µg/mL | 4.4 µg/mL | 6 µg/mL | 11.2 µg/mL | < 0.26 µg/mL | 240 µg/mL | 100 µg/mL |  |  |  | 7 |
| COc1cc(Cc2cnc(N)nc2N)cc(OC)c1OC [TMP, 2,4-diamino-5-(3,4,5-trimethoxybenzyl)pyrimidine, reference compound] |  |  |  | 1 | 50% | 2.15 µg/mL | 0.28 µg/mL | < 0.02 µg/mL | < 0.04 µg/mL | 1.08 µg/mL |  | < 0.04 µg/mL | 400 µg/mL | 200 µg/mL | 1 | 1 | 1 | 1 |
